US8524736B2, “Stereoisomeric compounds and methods for the treatment of gastrointestinal and central nervous system disorders” (Armetheon, Inc., priority 2004, dated 2013)

Experiments:
[1] = molecular target: T1, human 5-HT4 receptor (Homo sapiens, UniProt Q13639); assay: adenylyl cyclase stimulation in cells stably expressing human 5-HT4 receptor; assay type: cell-based; details: negative logarithm of the EC50
T1 construct: expressed in transfected cells

[2] = molecular target: CYP450 2D6 (Homo sapiens, UniProt P10635); details: recombinant enzyme
Chain of CYP450 2D6 (P10635 whole entry): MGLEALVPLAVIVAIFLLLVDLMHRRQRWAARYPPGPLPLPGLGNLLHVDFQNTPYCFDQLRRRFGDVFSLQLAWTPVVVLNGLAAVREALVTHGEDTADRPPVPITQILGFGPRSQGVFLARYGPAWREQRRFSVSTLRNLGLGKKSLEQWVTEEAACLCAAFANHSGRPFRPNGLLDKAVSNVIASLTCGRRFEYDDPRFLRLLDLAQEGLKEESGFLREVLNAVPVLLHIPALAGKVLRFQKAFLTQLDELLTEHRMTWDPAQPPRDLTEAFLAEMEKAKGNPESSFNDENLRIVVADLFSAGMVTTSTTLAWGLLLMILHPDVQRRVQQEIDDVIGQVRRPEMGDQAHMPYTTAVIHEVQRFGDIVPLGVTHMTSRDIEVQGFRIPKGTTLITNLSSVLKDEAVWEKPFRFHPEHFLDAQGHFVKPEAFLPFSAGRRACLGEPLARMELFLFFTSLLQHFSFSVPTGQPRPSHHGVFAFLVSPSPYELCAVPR

[3] = tested on: fasted, conscious dogs; assay: gastric, small intestinal and colonic motor activity in fasted, conscious dogs; details: for prokinetic effects in the dog gut: IV and PO; for effect on migrating motor complex (MMC) characteristics: antrum, proximal, mid and distal small intestine
[4] = metabolism by esterases in human plasma
[5] = tested on: fed dogs; assay: gastric emptying in fed conscious dogs (time of MMC return); assay type: in vivo, dog; details: IV infusion over 20 minutes before a solid meal; FIG. 2
[6] = tested on: isolated, perfused guinea pig hearts
[7] = molecular target: T2, 5-HT4 Receptor (Cavia porcellus, UniProt O70528); assay: 5-HT4 Receptor Binding, Guinea Pig Striatum, [3H]GR113808; details: versus ATI-7500
T2 construct: Guinea Pig Striatum; from tissue; host or cells: guinea pig striatum
T2 sequence (O70528 whole entry): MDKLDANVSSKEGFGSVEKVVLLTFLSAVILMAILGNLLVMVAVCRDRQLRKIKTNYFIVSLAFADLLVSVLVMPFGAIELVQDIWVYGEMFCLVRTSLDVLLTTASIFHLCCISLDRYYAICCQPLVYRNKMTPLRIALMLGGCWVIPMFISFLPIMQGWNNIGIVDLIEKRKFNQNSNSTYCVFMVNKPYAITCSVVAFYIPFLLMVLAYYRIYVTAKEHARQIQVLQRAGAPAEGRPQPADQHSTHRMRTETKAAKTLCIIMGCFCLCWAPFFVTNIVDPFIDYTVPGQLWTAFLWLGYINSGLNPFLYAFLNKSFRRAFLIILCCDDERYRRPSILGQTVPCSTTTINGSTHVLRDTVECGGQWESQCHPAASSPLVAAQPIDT

T1 sequence (Q13639 whole entry): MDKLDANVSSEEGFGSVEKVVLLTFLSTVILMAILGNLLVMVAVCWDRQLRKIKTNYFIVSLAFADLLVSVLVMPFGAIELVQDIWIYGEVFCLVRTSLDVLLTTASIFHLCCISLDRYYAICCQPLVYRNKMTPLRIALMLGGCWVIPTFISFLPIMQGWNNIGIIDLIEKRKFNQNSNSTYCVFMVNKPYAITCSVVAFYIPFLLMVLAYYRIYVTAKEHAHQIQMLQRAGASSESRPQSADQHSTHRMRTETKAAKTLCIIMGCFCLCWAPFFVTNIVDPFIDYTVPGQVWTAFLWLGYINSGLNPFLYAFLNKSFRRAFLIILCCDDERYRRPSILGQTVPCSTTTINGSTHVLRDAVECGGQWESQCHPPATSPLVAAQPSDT

Row | Structure (SMILES) | Potency pEC50 [1] | inhibitory activity against CYP450 2D6 [2] | prokinetic effects in the dog gut [3] | effect on migrating motor complex (MMC) characteristics [3] | antral and small bowel contractility ([3]; fasted dogs) | colonic motor activity ([3]; fasted dogs) | metabolism by esterases in human plasma [4] | time of MMC return (index of gastric emptying) [5] | modulation of cardiac electrophysiologic parameters [6] | affinity for the 5-HT4 receptor, fold greater than ATI-7500 [7] | side effects such as diarrhea, anorexia, or weight loss ([3]; IV and PO doses, dogs) | MMC frequency in the proximal small intestine relative to controls ([3]; PO) | development of retrograde giant migrating contractions ([3]; fasted dogs)
1 | COc1cc(N)c(Cl)cc1C(=O)N[C@@H]1CCN(CCCCCC(=O)O)C[C@@H]1OC [ATI-7500, 6-((3S,4R)-4-(4-amino-5-chloro-2-methoxybenzamido)-3-methoxypiperidin-1-yl)hexanoic acid] | 6.40 | – | – | – | – | – | – | – | – | – | – | – | –
2 | COc1cc(N)c(Cl)cc1C(=O)NC1CCN(CCCOc2ccc(F)cc2)CC1OC (stereo not drawn) [Cisapride, reference compound] | – | significant inhibitory activity | caused prokinetic effects | minimal effect | dose-dependent stimulation of antral and small bowel contractility | relatively little effect on colonic motor activity | – | – | – | – | – | – | –
3 | COc1cc(N)c(Cl)cc1C(=O)N[C@@H]1CCN(CCCCCC(=O)O[C@H]2CN3CCC2CC3)C[C@@H]1OC [ATI-7505, 6-[4R-(4-amino-5-chloro-2-methoxy-benzoylamino)-3S-methoxy-piperidin-1-yl]-hexanoic acid 1-aza-bicyclo[2.2.2]oct-3′R-yl ester] | 8.45 | – | caused prokinetic effects | minimal effect | dose-dependent stimulation of antral and small bowel contractility | relatively little effect on colonic motor activity | rapidly metabolized by esterases in human plasma | significantly shortened the time of MMC return | very weak modulator of cardiac electrophysiologic parameters | at least 360 fold | exhibited no side effects | increased MMC frequency | not associated with the development of retrograde giant migrating contractions
